The values that follow are results of earlier work, collected in paper PMC9276671, “A first-in-human Phase I dose-escalation trial of the novel therapeutic peptide, ALM201, demonstrates a favourable safety profile in unselected patients with ovarian cancer and other advanced solid tumours” (British Journal of Cancer, 2022).

Read-outs that look alike come from different tables or passages of the source. No end group written: not given here.

In one data set the test system is HMEC-1 cells. As to conditions: same concentration range, range of growth factors, ref Investigator brochure (IB); cited from earlier work. An excerpt: (§1) ALM201 also had no effect on cytok ...
The subject of another data set is HMEC-1. As to conditions: protocol Table 3; ref Investigator brochure (IB); read-out: Tube formation IC50; cited from earlier work.
Text: as §1

In a further data set the test system is cell cycle. Particulars: protocol Table 2 (IC50 (nM)); ref Investigator brochure (IB); cited from earlier work.
Text: as §1

In another data set the test system is cell viability. As to conditions: protocol Table 2; ref Investigator brochure (IB); cited from earlier work.
Text: as §1

Data set [1] relates to invasion stimulated by VEGF, EGF, FGF, PFGF and FCS. Particulars: 10^-9 M (exponent printed displaced), ref Investigator brochure (IB); cited from earlier work.
Text: as §1

For another data set, the system named is proliferation. Particulars: protocol Table 3; ref Investigator brochure (IB); cited from earlier work.
Text: as §1

A further data set concerns rat aorta. As to conditions: ex vivo rat aorta in Matrigel, 7-day period, depending on the parameter assessed; ref Investigator brochure (IB); read-out: IC50 for tubule out-growth parameters; cited from earlier work.
Text: as §1

The subject of data set [2] is HT29, DU145 and MDA-231 xenografts. Particulars: cited from earlier work.
For data set [3] the following is noted: ref Investigator brochure (IB), cited from earlier work. As for the experimental part:
page 40: Almac Discovery Confidential (i) a […] dose ranging study in rats, dose range 5-50 mg/kg/day; (ii) a non-GLP dose ranging study in dogs, dose range 15-50 mg/kg/day; (iii) a GLP 28-day study in rats, dose range 5-50 mg/kg/day; (iv) a GLP 28-day study in dogs, dose range 5-50 mg/kg/day; (v) a non-GLP wound healing study in rats, dose range 5-50 mg/kg/day. In the rat dose range finding study, administration of doses of up to 50 mg/kg/day for 14 days were assessed. ALM201 was well tolerated at all doses and the No Observable Adverse Effect Level (NOAEL) was considered to be 50 mg/kg/d ...

Turning to IRQQPRDPPTETLELEVSPDPAS [ALM201], the “Effect on cell proliferation or cell cycle” value in the data set with HMEC-1 cells was “no effect”. Also, the IC50 (usually the point on the concentration scale where inhibition reaches its midpoint) is 0.082 nM with HMEC-1 and 0.005 to 0.02 nM with rat aorta. Further, in the data set on cell cycle, the Cell cycle arrest result is reported as “No effect”. In the data set with cell viability, the “Cell viability IC50” value is recorded as “No effect”. In addition, the Invasion entry in data set [1] is “inhibit invasion”. The “Proliferation IC50” value with proliferation was “No effect”. Further, in data set [2] (0.3 mg/kg and 3.0 mg/kg daily or three times weekly, HT29, DU145 and MDA-231, ref Investigator brochure (IB)), the “Tumour size relative to vehicle controls” value is “significant inhibition of tumour size”. The “Anti-tumour activity in vivo” value in [2] (single agent or in combination with chemotherapeutic agents, tumour xenograft models, ref Almac Discovery, manuscript in preparation) is given as “significant anti-tumour activity”. In addition, the NOAEL (as a rule, the highest dose or exposure tested at which no adverse effect was seen) in [3] (beagle dog dose range finding, 15 and 50 mg/kg/day for 14 days) is given as 50 mg/kg/day; in [3] (dog GLP 28 days plus recovery, 5, 15 and 50 mg/kg/day), 50 mg/kg/day; in data set [3] (rat GLP 28 days plus recovery, 5, 15 and 50 mg/kg/day), 50 mg/kg/day; in [3] (rat dose range finding study, up to 50 mg/kg/day for 14 days) it was 50 mg/kg/day. For the same sequence, the “Effect on wound closure or tensile strength” value in data set [3] (rat, 5 and 50 mg/kg/day for up to 18 days, versus vehicle controls) is recorded as “No effect”.
